“Also recorded” adds a separate entry of the source.
Experiments:
[1] = NAC compared with ALA; cited from earlier work
[2] = system: humans; conditions: cited from earlier work
[3] = system: alcoholic hangover symptoms; test: Open-label and dose-finding studies in humans drinking alcoholic beverages
[4] = system: acetaldehyde toxicity in rodents; conditions: cited from earlier work
[5] = system: rodents; conditions: cited from earlier work
[6] = chronic dosing for two years; cited from earlier work
[7] = system: aldehyde dehydrogenase; conditions: humans; cited from earlier work
[8] = after oral administration; cited from earlier work

Row | Structure (SMILES) | Relative solubility (water versus fat) [1] | Outcome of high exposure ([2]; human child, 8480 mg/kg over 72 hours) | Doses required to decrease alcohol hangover symptoms as monotherapy, compared with the combination [3] | Protective effect against acetaldehyde toxicity [4] | LD50 (in words) [5] | Tolerability ([2]; diabetics given 600 mg/day for four years) | No-observed-effect level [6] | Dose that must be ingested for any noticeable reduction of alcohol hangover symptoms ([3]; monotherapy, ingested prior to imbibing alcoholic beverages) | Effect on aldehyde dehydrogenase activity [7] | LD50 [5] | Oral absorption [8]
1 | CC(=O)N[C@@H](CS)C(=O)O [NAC, N-acetyl-L-cysteine] | more water soluble | survived with minor liver dysfunction | much greater doses | robust protective effects | very high |  |  |  |  |  | 
2 | O=C(O)CCCC[C@@H]1CCSS1 [ALA, (R)-(+)-lipoic acid] |  |  | much greater doses | same effect |  | well-tolerated | 60 mg/kg/day | at least 200 mg | increasing aldehyde dehydrogenase activity | > 2000 mg/kg | 
3 | N[C@@H](CS)C(=O)O [L-cysteine] |  |  |  |  |  |  |  |  |  |  | not well-absorbed; also recorded: poorly absorbed

Source: US20150202181A1, “Method of and compounds for the reduction of alcoholic hangover” (priority 2014, published 2015)
